Source: patent US10125100B2, “Kinase inhibitors” (Respivert Limited, priority 2014, dated 2018)

How the values were obtained:
[1] = biological target: B-Raf (Homo sapiens (Human), UniProt P15056); assay: KINOMEscan binding of kinase to standard ligand; details: KINOMEscan technology
Description: (§1) These assays may be conducted by DiscoverX (formerly Ambit; San Diego, Calif.).

[2] = biological target: B-Raf (V600E) (Homo sapiens (Human), UniProt P15056, V600E); assay: KINOMEscan binding of kinase to standard ligand; details: KINOMEscan technology
Description: as §1

[3] = biological target: Syk (Homo sapiens (Human), UniProt P43405); assay: Syk enzyme inhibition, Z-LYTE FRET; assay type: biochemical
In short: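 Syk or c-Src enzyme (3000 or 2000 ng/mL solutions) was preincubated 2 h at RT with compound solutions at 1, 0.1, 0.01 or 0.001 µg/mL. Z-LYTE FRET peptide (8 µM solution) and ATP (800 µM solution for c-Src, 60 µM for Syk) were then added for 1 h, followed by protease development for 1 h. Phosphorylation was read as the coumarin/fluorescein emission ratio.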

[4] = biological target: p38 MAPKα (MAPK14) (Homo sapiens (Human), UniProt Q16539); assay: p38 MAPKα enzyme inhibition (Method 2), Z-LYTE FRET; assay type: biochemical
In short: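 Enzyme (200 ng/mL solution) was preincubated 2 h at RT with compound solutions of 1, 0.1, 0.01 or 0.001 μg/mL, and inhibition was read indirectly via MAPKAP-K2 activation/phosphorylation. After a 1 h RT reaction and 1 h protease development, phosphorylation was derived from the coumarin/fluorescein emission ratio.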

[5] = system: Jurkat cells; assay: (r) Cell cytotoxicity assay; assay type: cell-based, human; details: 24 hours
In short: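 Jurkat cells (1×10^5/well, RPMI + 10% FBS) exposed to compound at 20, 5 or 1 μg/mL final (1.0% DMSO control) for 24 h at 37° C., 5% CO2. Then stained with 7.5 μg/mL propidium iodide for 15 min. % viability = PI-negative cells by flow cytometry, normalized to DMSO.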

[6] = Hydrolytic stability study; assay type: physicochemical; details: DMSO/water (3:1), 1 mg/mL
Protocol: Chemical stability of compounds of the invention was assessed in a mixture of DMSO and water (3:1) at a test compound concentration of 1 mg/mL.
General HPLC Procedure • Agilent, Waters X-Select C18, 2.5 μm, 4.6×30 mm column, 4 min method, 5-95% MeCN/water (0.1% formic acid). Flow rate 2.5 mL/min. Column Oven Temperature 40° C. Detection 254 nm.
Sample Preparation • A 1.0 mg sample of test compound was dissolved in 750 μL of DMSO. Water (250 μL) was added slowly, ensuring no precipitation occurred.
Recording Stability • A 50 μL aliquot of the test solution was removed and analysed in duplicate by 5 μL HPLC injections. The peak area for the test compound was recorded following manual integration of the corresponding UV trace. • The test solution was heated to 60° C., with stirring, and 50 μL aliquots removed for HPLC analysis at 5 and 24 h timepoints.

[7] = system: Salmonella typhimurium, strains TA1535, TA1537, TA98 and TA100; assay: Bacterial reverse mutation screen; details: for toxicity of the test item to the bacteria (mean colony count): at the highest doses (500-5000 μg/plate) in some strains; for mutagenic effects (revertant numbers): plate incorporation, presence and absence of S-9 mix
[8] = system: Escherichia coli, WP2 uvrA; assay: Bacterial reverse mutation screen; details: for mutagenic effects (revertant numbers): plate incorporation, presence and absence of S-9 mix
[9] = biological target: c-Src (Homo sapiens (Human), UniProt P12931); assay: c-Src enzyme inhibition, Z-LYTE FRET; assay type: biochemical
In short: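 Human Syk and c-Src (enzyme at 2000 or 3000 ng/mL respectively, pre-dilution) preincubated 2 hr at RT with compound at 1, 0.1, 0.01 or 0.001 μg/mL; FRET peptide added with ATP (60 μM Syk, 800 μM c-Src; solution concentrations), 1 hr. Protease development 1 hr; phosphorylation from coumarin/fluorescein emission ratio.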

[10] = system: mitosis in PBMCs; assay: (g) Cell mitosis assay; assay type: cell-based; details: Homo sapiens, PBMC, 5 μg/mL
In short: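 Healthy-donor PBMCs stimulated with 2% PHA for 48 hr, then exposed to test compounds at varying concentrations for 20 hr; demecolcine (0.1 μg/mL) added 2 hr before collection for metaphase arrest. Cells fixed/permeabilized, stained with anti-phospho-histone 3 and propidium iodide; mitotic cells counted by flow cytometry gating on lymphocytes.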

[11] = biological target: GSK 3α (Homo sapiens (Human), UniProt P49840); assay: GSK 3α enzyme inhibition (Method 2), Z-LYTE FRET; assay type: biochemical; details: read-out: IC50 Values for Enzyme Inhibition GSK3α
Protocol: The enzyme inhibitory activities of compounds disclosed herein are determined by FRET using synthetic peptides labelled with both donor and acceptor fluorophores (Z-LYTE, Invitrogen Ltd., Paisley, UK).
The following two assay variants can be used for determination of GSK 3α inhibition.
The inhibitory activities of compounds of the invention against the GSK 3α enzyme isoform (Invitrogen), are evaluated by determining the level of activation/phosphorylation of the target peptide. The GSK3-α protein (500 ng/mL, 2.5 μL) is mixed with the test compound (2.5 μL at either 4 μg/mL, 0.4 μg/mL, 0.04 μg/mL, or 0.004 μg/mL) for 2 hr at RT. The FRET peptide (8 μM, 2.5 μL), which is a phosphorylation target for GSK3α, and ATP (40 μM, 2.5 μL) are then added to the enzyme/compound mixture and the resulting mixture incubated for 1 hr. Development reagent (protease, 5 μL) is added for 1 hr prior to detection in a fluorescence microplate reader (Varioskan® Flash, ThermoFisher Scientific).
In all cases, the site-specific protease cleaves non-phosphorylated peptide only and eliminates the FRET signal. Phosphorylation levels of each reaction are calculated using the ratio of coumarin emission (donor) over fluorescein emission (acceptor), for which high ratios indicate high phosphorylation and low ratios indicate low phosphorylation levels.
This method follows the same steps as Method 1 above, but utilises a shorter period of mixing of the test compound (105 minutes instead of 2 hours) with the GSK3-α protein. In addition, the concentrations of test compound employed are either 10 μg/mL, 1 μg/mL, 0.1 μg/mL, or 0.01 μg/mL

[12] = system: LPS-stimulated Lewis rats; assay: (vi) Endotoxin-induced uveitis in rats; assay type: in vivo, rat
Protocol: Male, Lewis rats (6-8 weeks old, Charles River UK Limited) are housed in cages of 3 at 19-21° C. with a 12 h light/dark cycle (07:00/19:00) and fed a standard diet of rodent chow and water ad libitum. Non-fasted rats are weighed, individually identified on the tail with a permanent marker, and receive a single intravitreal administration into the right vitreous humor (5 μL dose volume) of 100 ng/animal of LPS (Escherichia coli 0111:B4 prepared in PBS, Sigma Aldrich, UK) using a 32-gauge needle. Untreated rats are injected with PBS. Test compound or vehicle (4% polyoxyl 40 stearate, 4% mannitol in PBS ([…])) are administered by the topical route onto the right eye (10 μL) of animals 1 hour prior to LPS, at the time of LPS administration, and 1, 2 and 4 hours post LPS administration. Before administration, the solution to be administered is sonicated to ensure a clear solution. 6 hours after LPS dosing, animals are euthanized by overdose with pentobarbitone (via cardiac puncture). Immediately after euthanasia, 10 μL of aqueous humor is collected from the right eye of the rats by puncture of the anterior chamber using a 32 gauge needle under a surgical microscope. The aqueous humor is diluted in 20 μL of PBS and total cell counts are measured immediately using a Countess automated cell counter (Invitrogen). Following collection of the aqueous humour, the right eye of each animal is enucleated and dissected into front (anterior) and back (posterior) sections around the lens. Each section is weighed and homogenised in 500 μL of sterile phosphate buffered saline followed by 20 minutes centrifugation at 12000 rpm at 4° C. The resulting supernatant is divided into 3 aliquots and stored at −80° C. until subsequent cytokine analysis by R&D DuoSet ELISA.

[13] = Stability of pharmaceutical formulations; assay type: physicochemical
Protocol: The samples were sonicated to achieve clear solutions having the following properties: Osmolality (mOsm/kg): 310 (Na), 314 (HCl); pH: 7.00 (Na), 7.05 (HCl). 0.5 mL of the stock solutions were diluted to 1 mL with 20% DMSO in water & injected for purity analysis by HPLC. The remaining stock solutions were then split into aliquots of 0.5 mL in HPLC vials, and stored at various conditions in duplicate. Samples were stored at 5 and 25° C., before being analysed by HPLC at 1, 2 and 4 weeks. Separate samples were stored at 40° C. and analysed at 4 weeks.

[14] = system: eyes of albino New Zealand White rabbits
[15] = rats treated with intravitreal endotoxin LPS
[16] = sodium (Na) salt, 1 mg/mL in 10 mM pH 7.2 phosphate buffer, 4.5% mannitol, 3% polyoxyl 40 stearate

Chain of c-Src (P12931 whole entry, looked up): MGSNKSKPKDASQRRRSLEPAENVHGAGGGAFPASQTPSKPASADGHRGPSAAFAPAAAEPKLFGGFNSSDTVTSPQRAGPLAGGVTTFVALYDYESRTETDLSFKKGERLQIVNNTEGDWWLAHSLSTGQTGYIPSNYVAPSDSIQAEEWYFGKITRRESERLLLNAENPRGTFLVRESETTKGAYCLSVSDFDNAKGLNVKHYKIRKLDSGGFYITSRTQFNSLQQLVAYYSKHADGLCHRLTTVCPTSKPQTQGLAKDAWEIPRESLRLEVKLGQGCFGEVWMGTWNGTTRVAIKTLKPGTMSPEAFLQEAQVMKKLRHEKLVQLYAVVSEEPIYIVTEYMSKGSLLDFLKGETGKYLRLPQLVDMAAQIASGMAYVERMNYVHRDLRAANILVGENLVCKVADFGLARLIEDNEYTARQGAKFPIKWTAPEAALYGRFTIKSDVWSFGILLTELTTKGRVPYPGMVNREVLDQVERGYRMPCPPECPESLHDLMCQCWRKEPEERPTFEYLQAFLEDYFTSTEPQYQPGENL
Chain of B-Raf (V600E) (P15056 whole entry V600E): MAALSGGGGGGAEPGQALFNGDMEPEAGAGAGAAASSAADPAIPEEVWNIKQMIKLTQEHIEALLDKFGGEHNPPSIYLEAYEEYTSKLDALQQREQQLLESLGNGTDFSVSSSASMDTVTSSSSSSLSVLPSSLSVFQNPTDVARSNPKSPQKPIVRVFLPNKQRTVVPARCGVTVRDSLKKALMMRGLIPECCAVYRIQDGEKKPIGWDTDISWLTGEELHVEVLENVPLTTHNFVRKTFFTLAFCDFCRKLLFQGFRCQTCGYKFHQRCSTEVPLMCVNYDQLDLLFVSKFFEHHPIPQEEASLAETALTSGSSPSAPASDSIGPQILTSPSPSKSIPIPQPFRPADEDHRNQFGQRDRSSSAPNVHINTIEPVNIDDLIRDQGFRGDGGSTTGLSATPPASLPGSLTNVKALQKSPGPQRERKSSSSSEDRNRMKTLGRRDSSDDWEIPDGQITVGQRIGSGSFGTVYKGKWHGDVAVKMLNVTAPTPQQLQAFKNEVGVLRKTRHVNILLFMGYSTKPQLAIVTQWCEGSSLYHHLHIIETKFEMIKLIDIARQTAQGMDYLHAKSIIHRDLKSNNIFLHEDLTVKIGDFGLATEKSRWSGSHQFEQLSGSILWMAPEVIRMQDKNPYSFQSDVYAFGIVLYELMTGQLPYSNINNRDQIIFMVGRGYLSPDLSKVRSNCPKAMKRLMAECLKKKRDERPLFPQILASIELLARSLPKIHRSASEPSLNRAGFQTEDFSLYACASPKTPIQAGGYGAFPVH
Chain of B-Raf (P15056 whole entry): as the sequence (P15056 whole entry V600E) above, with E600V counted along it
Chain of GSK 3α (P49840 whole entry): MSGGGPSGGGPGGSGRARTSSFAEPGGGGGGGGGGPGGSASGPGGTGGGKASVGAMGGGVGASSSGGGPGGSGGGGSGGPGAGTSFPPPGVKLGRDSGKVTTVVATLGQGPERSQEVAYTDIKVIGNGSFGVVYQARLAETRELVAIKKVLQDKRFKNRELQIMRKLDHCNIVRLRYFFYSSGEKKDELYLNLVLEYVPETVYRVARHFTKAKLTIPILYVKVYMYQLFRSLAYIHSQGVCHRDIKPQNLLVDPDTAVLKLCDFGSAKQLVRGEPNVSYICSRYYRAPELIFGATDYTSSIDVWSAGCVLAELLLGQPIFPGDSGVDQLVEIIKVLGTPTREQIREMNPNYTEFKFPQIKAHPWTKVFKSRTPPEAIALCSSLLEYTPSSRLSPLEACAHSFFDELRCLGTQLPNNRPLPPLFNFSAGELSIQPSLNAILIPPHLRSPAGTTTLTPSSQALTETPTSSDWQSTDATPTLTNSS
Chain of p38 MAPKα (MAPK14) (Q16539 whole entry): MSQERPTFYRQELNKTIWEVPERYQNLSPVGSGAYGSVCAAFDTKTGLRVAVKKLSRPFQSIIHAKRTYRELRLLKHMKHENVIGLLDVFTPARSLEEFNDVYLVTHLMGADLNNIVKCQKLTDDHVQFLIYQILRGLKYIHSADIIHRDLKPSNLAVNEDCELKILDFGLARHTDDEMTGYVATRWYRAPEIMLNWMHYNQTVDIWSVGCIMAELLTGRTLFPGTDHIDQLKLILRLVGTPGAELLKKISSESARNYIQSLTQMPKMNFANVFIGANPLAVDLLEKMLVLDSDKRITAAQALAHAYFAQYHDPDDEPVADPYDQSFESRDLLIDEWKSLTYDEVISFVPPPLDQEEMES

Compound | effect on the binding of B-Raf to its standard ligand [1] | effect on the binding of B-Raf (V600E) to its standard ligand [2] | IC50 [3] [nM] | toxicity of the test item to the bacteria (mean colony count) [7] | mutagenic effects (revertant numbers) [7] | mutagenic effects (revertant numbers) [8] | IC50 [9] [nM] | inhibition at 5 µg/mL [10] [%] | IC50 [11] [nM] | further results
COc1cc(Nc2cc(Oc3ccc(NC(=O)Nc4cc(C(C)(C)C)cc(NS(C)(=O)=O)c4OC)c4ccccc34)ccn2)ccc1P(C)(=O)O [Example 44, (4-((4-((4-(3-(5-(tert-Butyl)-2-methoxy-3-(methylsulfonamido)phenyl)ureido)naphthalen-1-yl)oxy)pyridin-2-yl)amino)-2-methoxyphenyl)(methyl)phosphinic acid] | did not have any significant effect | did not have any significant effect | 17 | reduction in the mean colony count | absence of any mutagenic effects | absence of any mutagenic effects | 20 | – | – | IC50 [4]: 11 nM; % Viability at 1 μg/mL ([5]; 1 μg/mL): 93.3%; % Viability at 5 μg/mL ([5]; 5 μg/mL): 90.1%; % Viability at 20 μg/mL ([5]; 20 μg/mL): 92.2%; % Parent Remaining ([6]; 0 min): 100%; % Parent Remaining ([6]; 60° C., 1439 min): 98%; toxicity of the test item to the bacteria (mean colony count) ([8]; 5000 μg/plate in WP2 uvrA, absence of S-9 mix): reduction in the mean colony count
COc1cc(Nc2cc(Oc3ccc(NC(=O)Nc4cc(C(C)(C)C)cc(NS(C)(=O)=O)c4OC)c4ccccc34)ccn2)ccc1C(=O)NCCCN1CCS(=O)(=O)CC1 [17(ah), 4-[[4-[[4-[[5-tert-butyl-3-(methanesulfonamido)-2-methoxy-phenyl]carbamoylamino]-1-naphthyl]oxy]-2-pyridyl]amino]-N-[3-(1,1-dioxo-1,4-thiazinan-4-yl)propyl]-2-methoxy-benzamide] | – | – | 57 | – | – | – | 20 | 32.5 | 9190 | –
COc1cc(Nc2cc(Oc3ccc(NC(=O)Nc4cc(C(C)(C)C)cc(NS(C)(=O)=O)c4OC)c4ccccc34)ccn2)ccc1C(=O)O [Example 1, 4-((4-((4-(3-(5-(tert-Butyl)-2-methoxy-3-(methylsulfonamido)phenyl)ureido)naphthalen-1-yl)oxy)pyridin-2-yl)amino)-2-methoxybenzoic acid] | did not have any significant effect | did not have any significant effect | – | reduction in the mean colony count | absence of any mutagenic effects | absence of any mutagenic effects | – | 2.4 | – | IL-1β (pg/mL) Anterior tissue ([12]; LPS-stimulated rats, topical 0.01 mg/mL, mean ± SEM): 980.0 ± 110.8 pg/mL; cellular infiltration (cell counts) in the eyes [12, 15]: significantly and dose-dependently reduced; cytokine IL-1β levels in anterior and posterior segments of the eyes [12, 15]: significantly and dose-dependently reduced; stability in solution ([13]; 1 mg/mL formulation, 5° C., up to 4 weeks): stable; pH of solution ([13]; hydrochloride (HCl) salt, 1 mg/mL in 10 mM pH 7.2 phosphate buffer, 4.5% mannitol, 3% polyoxyl 40 stearate): 7.05; Osmolality [13, 16]: 310 mOsm/kg; pH of solution [13, 16]: 7.00; local tolerability of the formulations, Phase 2 ([14]; 3 treatment days): acceptable without any aggravation; local tolerability of the formulations, Phase 1 ([14]; after a single dosing day): acceptable; ocular reactions compared with vehicle controls, Phase 1 ([14]; one treatment day, 0.1 and 1.0 mg/mL, four daily instillations): no differences in the frequency, severity and incidence; main ocular reactions, Phase 2 ([14]; three consecutive treatment days, 0.1 and 1.0 mg/mL, four daily instillations): limited to conjunctival redness (grade 1)
COc1cc(Nc2cc(Oc3ccc(NC(=O)Nc4cc(C(C)(C)C)cc(NS(C)(=O)=O)c4OC)c4ccccc34)ccn2)ccc1C(=O)NCCN1CCN(C)CC1 [17(a), 4-[[4-[[4-[[5-tert-butyl-3-(methanesulfonamido)-2-methoxy-phenyl]carbamoylamino]-1-naphthyl]oxy]-2-pyridyl]amino]-2-methoxy-N-[2-(4-methylpiperazin-1-yl)ethyl]benzamide] | – | – | – | – | – | – | 16 | 75.6 | 4000 | –
